Earlier results, collected in US20120259154A1, “In Vivo Immunomagnetic Hyperthermia Platform for Any Cell or Virus Having a Target Surface Receptor” (IVDiagnostics, Inc., priority 2011, published 2012).

Conditions: following intravenous administration

Substance: folate-FITC
- t1/2 (clearance from the blood): 3.5 min
